# Experimental data: patent US20230285393A1, “METHOD FOR TREATING GRAFT VERSUS HOST DISEASE CAUSED BY HEMATOPOIETIC STEM CELL TRANSPLANTATION” (BEIJING TIDE PHARMACEUTICAL CO., LTD., priority 2020, published 2023)
# Target: ROCK2 (Homo sapiens (Human), UniProt O75116)
# Assay: ROCK2 Kinase Activity Assay (HTRF KinEASE-STK S2 kit)
# Assay type: biochemical
# Details: not given
# Experimental: The kinase IC50 was determined by a commercialized CISBIO kinase detection kit, HTRF KinEASE-STK S2 kit (62ST2PEC). ROCK2 (01-119) employed in the reaction was purchased from Carna Biosciences.
# Before the assay, the following working solutions as needed were formulated with corresponding reagents according to the instruction of the kinase detection kit: 1×kinase buffer, 5×STK-S2 substrate working solution (1.5 μM) and 5×ATP working solution (1.5 μM), 5×ROCK2 kinase working solution, 4×Streptavidin-XL665 working solution, and 4×STK-Ab-Cryptate 2 detection solution. Then the assay was performed according to the following procedure.
# A solution of a compound at a concentration of 10000 nM was prepared with the 1×kinase buffer containing 2.5% DMSO. Gradient dilution of the solution of the compound was performed with the kinase buffer containing DMSO, so as to obtain solutions of a test compound at 9 different concentrations. In addition to wells of test compounds, a positive well (containing all the reagents except the compound) and a negative well (containing all the reagents except the test compound and kinase) were set. Except for the control wells (positive and negative wells), a solution of a test compound (4 μL) was added to each of the reaction wells, and a solution of 2.5% DMSO was added to the control wells. Then the substrate (2 μM, i.e., 2 μL 5×STK-S2 substrate working solution) was added to each of the reaction wells. The 5×ROCK2 kinase working solution (2 μL, containing 1.4 ng ROCK2 kinase) was added to each of the reaction wells except for the negative well, the volume of which was made up with the 1×kinase buffer (2 μL). The 5×ATP working solution (2 μL) was added to each of the reaction wells, and the mixtures were incubated at room temperature for 2 hours. After the kinase reaction was complete, the 4×Streptavidin-XL665 working solution was added to each of the reaction wells, the solutions were mixed, followed by immediate addition of the 4×STK-Ab-Cryptate 2 detection solution (5 μL), and the mixtures were incubated at room temperature for 1 hour. The fluorescence signal was read on ENVISION (Perkinelmer) (excitation wavelength: 320 nm, and emission wavelength: 665 nm and 615 nm). The inhibitory rate in each well was calculated based on the fluorescence intensity value: ER (Emission Ratio)=(fluorescence intensity at 665 nm/fluorescence intensity at 615 nm); inhibitory rate=(ERpositive−ERtest compound)/(ERpositive−ERnegative)*100%. Curves were plotted and fitted to obtain the median inhibitory concentration (IC50) of each teat compound with the PRISM 5.0 software.
# Chain of ROCK2 (O75116 1-553 limits assumed): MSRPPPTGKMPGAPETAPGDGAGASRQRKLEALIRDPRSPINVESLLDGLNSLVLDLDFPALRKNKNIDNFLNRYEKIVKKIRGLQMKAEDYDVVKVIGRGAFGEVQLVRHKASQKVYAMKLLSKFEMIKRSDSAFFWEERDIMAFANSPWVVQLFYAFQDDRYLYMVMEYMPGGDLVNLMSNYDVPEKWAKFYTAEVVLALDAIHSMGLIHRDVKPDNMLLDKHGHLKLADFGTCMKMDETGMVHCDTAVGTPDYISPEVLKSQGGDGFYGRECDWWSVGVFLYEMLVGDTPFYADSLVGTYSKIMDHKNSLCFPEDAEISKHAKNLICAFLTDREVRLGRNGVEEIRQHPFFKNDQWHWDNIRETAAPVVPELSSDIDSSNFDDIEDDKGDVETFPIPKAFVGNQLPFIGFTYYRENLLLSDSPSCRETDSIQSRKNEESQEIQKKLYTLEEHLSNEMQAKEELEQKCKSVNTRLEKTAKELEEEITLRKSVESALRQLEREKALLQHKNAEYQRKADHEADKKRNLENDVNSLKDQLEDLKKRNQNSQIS
row,IC50,Structure (SMILES)
1,24 nM,O=C(c1cc2ccc(-c3ncc(F)c(Nc4ccc(-c5cn[nH]c5)cc4)n3)cc2[nH]1)N1CC(F)(F)C1 [Compound 008]
2,27 nM,Fc1cc(Nc2ccnc(-c3ccc4cc(-c5nccs5)[nH]c4c3)n2)ccc1-c1cn[nH]c1 [Compound 128]
3,75 nM,O=C(N1Cc2ccc(-c3nccc(Nc4ccc(-c5cn[nH]c5)cc4)n3)cc2C1)N1CC(F)(F)C1 [Compound 022]
4,12 nM,Cn1c(C(=O)N2CC(F)(F)C2)cc2ccc(-c3ncc(F)c(Nc4ccc(-c5cn[nH]c5)cc4)n3)cc21 [Compound 009]
5,34 nM,O=C(c1cc2ccc(-c3nccc(Nc4ccc(-c5cn[nH]c5)cc4)n3)cc2[nH]1)N1CC(F)(F)C1 [Compound 006]
6,61 nM,O=C(c1cc2ccc(-c3nccc(Nc4ccc(-c5cn[nH]c5)c(F)c4)n3)cc2[nH]1)N1CC(F)(F)C1 [Compound 010]
7,44 nM,O=C(C1CC(F)(F)C1)N1Cc2ccc(-c3nccc(Nc4ccc(-c5cn[nH]c5)cc4)n3)cc2C1 [Compound 020]
8,9 nM,Cn1c(C(=O)N2CC(F)(F)C2)cc2ccc(-c3nccc(Nc4ccc(-c5cn[nH]c5)c(F)c4)n3)cc21 [Compound 011]
9,45 nM,O=C(C1CC(F)(F)C1)N1Cc2ccc(-c3ncc(F)c(Nc4ccc(-c5cn[nH]c5)cc4)n3)cc2C1 [Compound 021]

row,Structure (SMILES),IC50
1,Cn1c(C(=O)N2CC(F)(F)C2)cc2ccc(-c3nccc(Nc4ccc(-c5cn[nH]c5)cc4)n3)cc21 [Compound 007],33 nM

# Test system: CD4 Naïve T cells from BALB/c mice mixed with C57BL/6 dendritic cells
# Assay: Allogeneic Mixed Lymphocyte Reaction, inflammatory factors in supernatant
# Assay type: cell-based, mouse
# Details: 125 nM, 250 nM, 500 nM, 1000 nM; 5 days of culture; compared with control group
# Experimental: Bone marrow cells from C57BL/6 (B6) mouse were isolated and incubated with granulocyte-macrophage colony stimulating factor (GM-CSF, 20 ng/mL, Biolegend, 713704) and interleukin-4 (IL-4, 10 ng/mL, Biolegend, 10715004) for 7 days, followed by addition of 20 ng/mL lipopolysaccharide (LPS) and incubation for 24 hours, the dendritic cells (DC) were collected. The CD4 Naïve T cells from BALB/c mice were extracted and isolated with a commercial kit (Dakewe, 480039). […] CD4 Naïve T cells and 25×10^3 DC cells were mixed and cultured. Compound 007 was added to the mixed cells at four concentrations (125 nM, 250 nM, 500 nM, and 1000 nM), respectively, and a control group (to which an equal amount of the medium was added) was set. After 5 days of culture, the supernatants were collected and kits were employed for the detection of inflammatory factors (IL-6 (Duyou, 1210602), TNF-α (Duyou, 1217202), IFN-γ (Duyou, 1210002), and IL-2 (Duyou, 1210202)).
row,Structure (SMILES),"levels of the inflammatory factors (IL-6, TNF-α, IFN-γ, IL-2)"
1,Cn1c(C(=O)N2CC(F)(F)C2)cc2ccc(-c3nccc(Nc4ccc(-c5cn[nH]c5)cc4)n3)cc21 [Compound 007],significantly reduced the levels of the inflammatory factors

# Test system: irradiated BALB/c recipient mice infused with C57BL/6 donor bone marrow and spleen cells
# Assay: Therapeutic effect in mice: allogeneic bone marrow/spleen cell transplantation GVHD model, survival rate
# Assay type: in vivo
# Details: 30 mpk oral gavage once daily for 23 days, compared with the model group
# Experimental: Male BALB/c recipient mice were irradiated with 8.5 Gy of total body irradiation (TBI) (Gammacell 40, NORPION International Co., Ltd., irradiation source: ^137Cs). A suspension of bone marrow cells (BMC) and spleen cells (SC) from C57BL/6 (H-2b) donor mice was prepared and infused via tail vein to irradiated BALB/c recipient mice at 0.5 mL/per mouse (containing 10×10^6 bone marrow cells and 6.25×10^6 spleen cells from the allogeneic C57BL/6 (H-2b) donor mice). Subsequently, the BALB/c mice were randomly divided into two groups: a model group (G2) and a compound 007 group (G3). An irradiation group (G4) (i.e., receiving ^137Cs irradiation only without donor mouse cell suspension infusion) and a syngeneic bone marrow transplantation group (G1) (a suspension containing 10×10^6 bone marrow cells from syngeneic BALB/c mice was administered to mice in this group via tail vein infusion). G1-G4 groups comprised 9 mice per group. The mice in the model group, the irradiation group and the syngeneic bone marrow transplantation group were administered with vehicle (a 0.2% Tween-80 aqueous solution) by oral gavage, once a day for 23 days. The mice in the compound 007 group were administered with 30 mpk of compound 007 by oral gavage, once daily for 23 days from the first day of model establishment. The survival rate of the animals was recorded daily.
row,Structure (SMILES),survival rate
1,Cn1c(C(=O)N2CC(F)(F)C2)cc2ccc(-c3nccc(Nc4ccc(-c5cn[nH]c5)cc4)n3)cc21 [Compound 007],significantly improved the survival rate
